# Assay results published in patent US20240124389A1, “COMPOUND OR SALT THEREOF, LIPID PARTICLES, AND PHARMACEUTICAL COMPOSITION” (FUJIFILM Corporation, priority 2021, published 2024).
# System: human EPO
# Experiment: Measurement of EPO enzyme activity (EPO protein in blood plasma of mice after intravenous administration of EPO mRNA lipid particles)
# Assay type: in vivo
# Conditions: C57BL/6J mice, tail-vein i.v., mRNA 0.1 mg/kg, plasma 20 to 24 hours; aminolipid 50 / DOPE 10 / cholesterol 38.5 / DMG-PEG2000 1.5 mol %; lipid/nucleic acid 64 wt/wt
# Procedure, shortened: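 C57BL/6J mice received EPO mRNA (5moU) in lipid particles (ionizable lipid, DSPC/DOPE/DOPC, cholesterol, DMG-PEG2000) by tail-vein injection at 0.1 mg/kg mRNA. Plasma taken 20–24 h later; human EPO measured by ELISA and expressed relative to a comparative formulation set as 1.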
row,SMILES,Relative amount of EPO protein (with respect to Comparative Example 1)
1,"CCCCCCCOC(=O)CCCC(CCCC(=O)OCCCCCCC)OC(=O)OCCN(CCOC(=O)OC(CCCC(=O)OCCCCCC)CCCC(=O)OCCCCCC)CCN(CC)CC [Example 37, 1-Heptyl 21-hexyl 11-(2-(diethylamino)ethyl)-5-(4-(heptyloxy)-4-oxobutyl)-17-(4-(hexyloxy)-4-oxobutyl)-7,15-d ioxo-6,8,14,16-tetraoxa-11-azahenicosanedioate]",5.18
2,"CCCCCC(CCCCC)COC(=O)CCCC(CCC)OC(=O)OCCN(CCOC(=O)OC(CCC)CCCC(=O)OCC(CCCCC)CCCCC)CCN(CC)CC (centres unmarked) [Example 21, Bis(2-pentylheptyl) 11-(2-(diethylamino)ethyl)-7,15-dioxo-5,17-dipropyl-6,8,14,16-tetraoxa-11-azahenicosanedioate]",4.66
3,"CCCCCCC(CCCC)COC(=O)CCCC(CCCCCC)OC(=O)OCCN(CCOC(=O)OC(CCCCCC)CCCC(=O)OCC(CCCC)CCCCCC)CCN(CC)CC (centres unmarked) [Example 8, Bis(2-butyloctyl) 11-(2-(diethylamino)ethyl)-5,17-dihexyl-7,15-dioxo-6,8,14,16-tetraoxa-11-azahenicosanedioate]",2.27
4,"CCCCCCCOC(=O)CCCC(CCCC(=O)OCCCCCCC)OC(=O)OCCN(CCOC(=O)OC(CCCC(=O)OCCCCCCC)CCCC(=O)OCCCCCCC)CCN(CC)CC [Example 29, diheptyl 11-(2-(diethylamino)ethyl)-5,17-bis(4-(heptyloxy)-4-oxobutyl)-7,15-dioxo-6,8,14,16-tetraoxa-11-azahenicosanedioate]",9.90
5,"CCCCCCC(CCCC(=O)OCC(CCCCC)CCCCC)OC(=O)OCCN(CCCN(CC)CC)CCOC(=O)OC(CCCCCC)CCCC(=O)OCC(CCCCC)CCCCC (centres unmarked) [Example 13, Bis(2-pentylheptyl) 11-(3-(diethylamino)propyl)-5,17-dihexyl-7,15-dioxo-6,8,14,16-tetraoxa-11-azahenicosanedio ate]",5.09
